Laboratory results taken from patent publication US7727988B2, “Azabicyclo[3.1.0]hex-3-yl}alkyl)pyrimidinedione” (Glaxo Group Limited, priority 2006, dated 2010).

Target: T1, dopamine D3 receptor (Homo sapiens, UniProt P35462)
T1 construct: host or cells: Chinese Hamster Ovary (CHO) cells, membranes
Assay: GTPS scintillation proximity assay (GTPS-SPA), CHO_D3 membranes, antagonist format
Format: biochemical
Experimental: Functional potency of compounds of this invention can be measured by the following GTPS scintillation proximity assay (GTPS-SPA). Cells used in the study are Chinese Hamster Ovary (CHO) Cells. • Cell Line • CHO_D2 • CHO_D3 • Dopamine CHO D3 (Biocat no 1060) transduced with bacmam G0 G-protein (Biocat no 97886)
All steps are performed at 4° C. Cell membranes are prepared as follows. Cell pellets are resuspended in 10 volumes of 50 mM HEPES, 1 mM EDTA pH 7.4, using KOH. Cells are homogenised within a glass waring blender for 2 bursts of 15 secs in 200 mls of buffer (50 mM HEPES, 1 mM leupeptin, 25 μg/ml bacitracin, 1 mM EDTA, 1 mM PMSF, 2 μM Pepstatin A). (the latter 2 reagents added as fresh ×100 and ×500 stocks respectively in ethanol). The blender is plunged into ice for 5 mins after the first burst and 10-40 mins after the final burst to allow foam to dissipate. The material is then spun at 500 g for 20 mins and the supernatant spun for 36 mins at 48.000 g. The pellet is resuspended in the same buffer as above but without PMSF and Pepstatin A. The material is then forced through a 0.6 mm needle, made up to the required volume, (usually ×4 the volume of the original cell pellet), aliquoted and stored frozen at −80° C.
The final top concentration of test drug is 3 μM in the assay and 11 points serial dilution curves 1:4 in 100% DMSO are carried out using a Biomek FX. The test drug at 1% (0.5 ul) total assay volume (TAV) is added to a solid, white Greiner polypropylene 384-well assay plate. 50% TAV (25 μl) of precoupled (for 60 mins at RT) membranes, 5 μg/well, and Wheatgerm Agglutinin Polystyrene Scintillation Proximity Assay beads (RPNQ0260, Amersham), 0.25 mg/well, in 20 mM HEPES (pH 7.4, 100 mM NaCl, 10 mM MgCl2), 60 μg/mL saponin and 30 uM GDP is added. The third addition is a 20% TAV (10 ul) addition of either buffer, (agonist format) or EC80 final assay concentration of agonist, Quinelorane, prepared in assay buffer (antagonist format). The assay is started by the addition of 29% TAV (15 ul) of GTP[35S] 0.38 nM final (37 MBq/mL, 1160 Ci/mmol, Amersham). After all additions assay plates are spun down for 1 min at 1,000 rpm. The final assay cocktail ([…]) is incubated at room temperature to equilibrate for 3-6 hours before reading on a ViewLux™ (613/55 filter) luminescence imager 5 min/plate.
The effect of the test drug over the basal generates fpKi values of test drug are calculated from the IC50 generated by “antagonist format” experiment, using Cheng & Prusoff equation: fKi=IC50/1+([A]/EC50) where: [A] is the concentration of the agonist Quinelorane in the assay and EC50 is the Quinelorane EC50 value obtained in the same experiment. fpKi is defined as −logfKi. • pKi results are only estimated to be accurate to about 0.3-0.5.

T1 sequence (P35462 whole entry, species assumed): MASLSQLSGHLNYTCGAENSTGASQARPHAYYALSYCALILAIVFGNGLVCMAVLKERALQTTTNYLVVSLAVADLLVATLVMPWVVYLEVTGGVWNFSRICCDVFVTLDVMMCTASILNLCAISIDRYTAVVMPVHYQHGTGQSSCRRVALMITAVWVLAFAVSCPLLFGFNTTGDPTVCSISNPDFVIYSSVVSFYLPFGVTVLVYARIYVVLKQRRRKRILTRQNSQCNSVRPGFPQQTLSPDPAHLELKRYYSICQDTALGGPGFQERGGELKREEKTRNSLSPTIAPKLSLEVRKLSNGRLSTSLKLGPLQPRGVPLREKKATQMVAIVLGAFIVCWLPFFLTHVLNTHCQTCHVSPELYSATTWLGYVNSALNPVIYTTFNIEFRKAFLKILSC

Selectivity for D3 over D2 receptors: 100 fold
Structure (SMILES): Cl.Cl.O=c1[nH]c(=O)n(CCCN2C[C@@H]3C[C@]3(c3ccc(C(F)(F)F)cc3)C2)cc1-c1cc(Cl)cnc1F [Example E43, 5-(5-chloro-2-fluoro-3-pyridinyl)-1-(3-{(1S,5R)-1-[4-(trifluoromethyl)phenyl]-3-azabicyclo[3.1.0]hex-3-yl}propyl)-2,4(1H,3H)-pyrimidinedione dihydrochloride]
